Measured values published in patent publication US9023616B2, “Oil producing microbes and method of modification thereof” (DSM Nutritional Products AG, priority 2006, dated 2015).

System: ONC-T18
Assay: Fatty acid production antagonist supplementation of ONC-T18 culture, fatty acid profile by FAME GC-FID
Assay type: cell-based, Thraustochytrium sp. ONC-T18
Settings: for adrenic acid, lipid as percentage of total fatty acid / arachidic acid, lipid as percentage of total fatty acid / arachidonic acid, lipid as percentage of total fatty acid / behenic acid, lipid as percentage of total fatty acid / docosadienoic acid, lipid as percentage of total fatty acid / docosahexaenoic acid, lipid as percentage of total fatty acid / docosapentaenoic acid n-3, lipid as percentage of total fatty acid / docosapentaenoic acid n-6, lipid as percentage of total fatty acid / eicosadienoic acid, lipid as percentage of total fatty acid / eicosapentaenoic acid, lipid as percentage of total fatty acid / eicosatetraenoic acid, lipid as percentage of total fatty acid / eicosatrienoic acid, lipid as percentage of total fatty acid / eicosenoic acid, lipid as percentage of total fatty acid / heneicosapentaenoic acid, lipid as percentage of total fatty acid / hexacosanoic acid, lipid as percentage of total fatty acid / homo-gamma-linolenic acid, lipid as percentage of total fatty acid / lignoceric acid, lipid as percentage of total fatty acid / margaric acid, lipid as percentage of total fatty acid / myristic acid, lipid as percentage of total fatty acid / myristoleic acid, lipid as percentage of total fatty acid / nervonic acid, lipid as percentage of total fatty acid / oleic acid, lipid as percentage of total fatty acid / palmitic acid, lipid as percentage of total fatty acid / palmitoleic acid, lipid as percentage of total fatty acid / pentadecanoic acid, lipid as percentage of total fatty acid / pentadecenoic acid, lipid as percentage of total fatty acid / stearic acid, lipid as percentage of total fatty acid / vaccenic acid, lipid as percentage of total fatty acid: presence of the antagonist, oleic acid without glucose
Description: Media containing 25 g/l sea salt and 1 g/l yeast extract was autoclaved at 120° C. for 20 minutes. Sterilized glucose was added to the media at a concentration of 9 g/l. Sethoxydim (Supleco) was dissolved in dimethyl sulfoxide at a concentration of 5 mg/ml was then added to the media at to represent a final concentration of 100 µM. 1 ml of a 24 hour pre-culture of ONC-T 18 that had been cultured in the same media was added. Culturing was carried out in a shaker (130 rpm) for four days at room temperature. After the incubation period, cells were harvested by centrifugation at 4300 rpm for 10 minutes. The cell pellets were then freeze-dried, weighed and the oil was extracted from the cells.
(§1) The lipids were extracted and derivatized to fatty acid methyl esters (FAME) for gas chromatography analysis (GC). Transesterification and extraction was done using 200 mg freeze dried cells, with C19:0 as internal standard, added transesterification reaction mix (methanol:hydrochloric acid:chloroform, 10:1:1) mixed and heated at 90° C. for 2 hours, then allowed to cool at room temperature. FAMEs were extracted by adding 1 ml water, and 2 ml hexane:chloroform (4:1), and allow organic and aqueous phases to separate. The organic layer was extracted and treated with 0.5 g of anhydrous sodium sulfate to remove particulates and residual water. The organic solvents were evaporated under a stream of argon. The FAMEs were re-suspended in 5 ml of iso-octane and analyzed by GC-FID. The percent conversion was calculated by dividing the product produced by the sum of (the product produced plus the substrate added) and then multiplying by 100.
Media containing 6 g/l sea salt, 2 g/l yeast extract, and 8 g/l L-glutamic acid monosodium salt hydrate was autoclaved at 120° C. for 20 minutes. Sterilized D+-glucose was then added to this media at a concentration of 40 g/l. Cerulenin dissolved in ethanol at a concentration of 5 mg/ml was added to 250 ml flask and the solvent was evaporated for 1 hour prior to adding the media to the flask. The amount of cerulenin in the flask represented a final concentration of 20 mg/l. ONC-T18 was then added to the medium from a plate culture and culturing occurred in a shaker (130 rpm) at room temperature for four days. After the incubation period, cells were harvested by centrifugation at 4300 rpm for 10 minutes, washed once with distilled water, and then centrifuged again at 4300 rpm for 10 minutes. The cell pellets were then freeze-dried, weighed and the oil was extracted from the cells.
as §1, with “produced+the” for “produced plus the”
Media containing 6 g/l sea salt, 2 g/l yeast extract, and 8 g/l L-glutamic acid monosodium salt hydrate was autoclaved at 120° C. for 20 minutes. Sterilized D+-glucose wad then added at a concentration of 5 g/l or was not added to the media. Oleic acid was added to the media to represent a final concentration of 2 ml/l. […]

Row | Structure (SMILES) | adrenic acid, lipid as percentage of total fatty acid [%] | arachidic acid, lipid as percentage of total fatty acid [%] | arachidonic acid, lipid as percentage of total fatty acid [%] | behenic acid, lipid as percentage of total fatty acid [%] | docosadienoic acid, lipid as percentage of total fatty acid [%] | docosahexaenoic acid, lipid as percentage of total fatty acid [%] | docosapentaenoic acid n-3, lipid as percentage of total fatty acid [%] | docosapentaenoic acid n-6, lipid as percentage of total fatty acid [%] | eicosadienoic acid, lipid as percentage of total fatty acid [%] | eicosapentaenoic acid, lipid as percentage of total fatty acid [%] | eicosatetraenoic acid, lipid as percentage of total fatty acid [%] | eicosatrienoic acid, lipid as percentage of total fatty acid [%] | eicosenoic acid, lipid as percentage of total fatty acid [%] | heneicosapentaenoic acid, lipid as percentage of total fatty acid [%] | hexacosanoic acid, lipid as percentage of total fatty acid [%] | homo-gamma-linolenic acid, lipid as percentage of total fatty acid [%] | lignoceric acid, lipid as percentage of total fatty acid [%] | margaric acid, lipid as percentage of total fatty acid [%] | myristic acid, lipid as percentage of total fatty acid [%] | myristoleic acid, lipid as percentage of total fatty acid [%] | also measured
1 | Cc1ccccc1C(=O)O [toluic acid] | 0.46 | 0.23 | 0.90 | 0.00 | 0.06 | 23.03 | 0.54 | 5.95 | 0.79 | 2.95 | 0.36 | 0.03 | 0.14 | 0.39 | 0.00 | 0.17 | 0.03 | 2.69 | 11.19 | 0.00 | nervonic acid, lipid as percentage of total fatty acid: 0.18%; oleic acid, lipid as percentage of total fatty acid: 0.11%; palmitic acid, lipid as percentage of total fatty acid: 26.90%; palmitoleic acid, lipid as percentage of total fatty acid: 2.36%; pentadecanoic acid, lipid as percentage of total fatty acid: 14.93%; pentadecenoic acid, lipid as percentage of total fatty acid: 0.27%; stearic acid, lipid as percentage of total fatty acid: 1.59%; vaccenic acid, lipid as percentage of total fatty acid: 3.68%
2 | COc1cc(CNC(=O)CCCC/C=C/C(C)C)ccc1O [capsaicin] | 0.46 | 0.20 | 0.78 | 0.00 | 0.17 | 16.86 | 0.31 | 5.19 | 0.23 | 1.38 | 0.27 | 0.00 | 0.00 | 0.00 | 0.00 | 0.22 | 0.00 | 0.19 | 21.86 | 0.28 | C16:0 content in ONC-T18, change versus control (in words) (antagonist added to medium): decrease in the content of C16:0; C16:1 content in ONC-T18, change versus control (in words) (antagonist added to medium): increase the content of C16:1; nervonic acid, lipid as percentage of total fatty acid: 0.00%; oleic acid, lipid as percentage of total fatty acid: 0.00%; palmitic acid, lipid as percentage of total fatty acid: 24.19%; palmitoleic acid, lipid as percentage of total fatty acid: 17.98%; pentadecanoic acid, lipid as percentage of total fatty acid: 0.91%; pentadecenoic acid, lipid as percentage of total fatty acid: 0.23%; stearic acid, lipid as percentage of total fatty acid: 1.60%; vaccenic acid, lipid as percentage of total fatty acid: 6.67%
